Here are results for 14 compounds from ChEMBL document CHEMBL3259635, “Recent developments of metal N-heterocyclic carbenes as anticancer agents” (Eur J Med Chem, 2014).

As a reminder, the IC50 is the concentration that gives 50% inhibition. Low values mean inhibition by little substance, high ones a need for much substance. The term EC50 denotes the concentration needed to bring the measured effect to its halfway point. High values mean weaker potency, low ones greater potency.

What all share (type): functional, cell-based
Assay [1] can be described thus: Cytotoxicity against breast cancer cells (unknown origin). To be noted: Cancer cell lines.
Assay [2] can be described thus: Cytotoxicity against gastric cancer cells (unknown origin). To be noted: Cancer cell lines, Stomach.
The nature of assay [3]: Cytotoxicity against rat PC12 cells. To be noted: PC-12.
The nature of assay [4]: Cytotoxicity against rat PC12 cells after 24 hrs. To be noted: PC-12, 24 h.
Assay [5] can be described thus: Cytotoxicity against epithelial cancer cells (unknown origin). To be noted: Cancer cell lines.
Assay [6] in a line: Cytotoxicity against CCO cells. To be noted: Ictalurus punctatus.

Structures are written as SMILES.

For `Cc1n(Cc2ccccc2)cc[n+]1Cc1ccccc1`, the IC50 in assay [1] and in assay [2] was 35 µM in each case. With `CCCCn1cc[n+](C)c1`, in assay [3], the EC50 was above 9120 µM.

Compound `CCCCCCCC[n+]1ccn(C)c1` registered an EC50 in assay [4] of 560 µM.

On to `CC(=O)Oc1ccc(Cn2cc[n+](-c3c(C)cc(C)cc3C)c2)cc1`, for which the IC50 in assay [1] is 20 µM; in assay [2], 10 µM. Regarding `Cc1ccc(C[n+]2ccn(Cc3ccccc3)c2)cc1`, in assay [5], it took 30 µM to reach half-maximal inhibition (IC50). The same measure, in the same setting: then `c1ccc(CCn2cc[n+](CCc3ccccc3)c2)cc1`, with 20 µM.

In assay [6], `CCCCCCCCn1cc[n+](C)c1.O=S(=O)([N-]S(=O)(=O)C(F)(F)F)C(F)(F)F` yielded an EC50 below 0.1 µM. In assay [6], `CCCCCCCn1cc[n+](C)c1.O=S(=O)([N-]S(=O)(=O)C(F)(F)F)C(F)(F)F` registered an EC50 below 0.1 µM. In assay [6], `CCCn1cc[n+](C)c1` had an EC50 above 10 µM. In assay [3], `CCCCCCCCCCCCn1cc[n+](C)c1` showed an EC50 of 24 µM. Take `CC(=O)Oc1ccc(Cn2cc[n+](Cc3ccccc3)c2C)cc1`: half-maximal inhibition in assay [5] (IC50) required 28 µM. The same measure, in the same setting: the figure for `Cc1n(Cc2ccccc2)cc[n+]1Cc1ccccc1C(F)(F)F` is 35 µM; for `c1ccc(Cc2cn(Cc3ccccc3)c[n+]2Cc2ccccc2)cc1` it is 20 µM. Same read-out and setting: the figure for `c1c[n+](C23CC4CC(CC(C4)C2)C3)cn1C12CC3CC(CC(C3)C1)C2` is 1 µM.
